From patent publication US20200277268A1, “PENTAFLUOROPHENYL SULFONAMIDE COMPOUNDS, COMPOSITIONS AND USES THEREOF” (DALRIADA THERAPEUTICS INC., priority 2017, published 2020)
Entries after “also recorded” stand apart in the source; their conditions may differ.

What was measured:
[1] = tested on: healthy human lung cells (MRC9); assay: CellTiter-Blue cell viability, MRC9; format: cell-based; conditions: non-cancerous, 72 hours
Protocol: (§1) The anti-cancer efficacy of exemplary compounds of the application were assessed in vitro against different cancer cell lines. Cell viability was examined following treatment at various concentrations of inhibitor (0.097656-50 μM) using a CellTiter-Blue® cell viability assay. 1×10^4 cells/well were plated in 96-well assay plates in culture medium. All cells were grown in DMEM, IMDM and RPMI-1640 supplemented with 10% fetal bovine serum (FBS). In some instances, FBS was removed for periods ranging from 16-24 hours, and re-introduced with test compound addition. After 24 hrs, test compounds and vehicle controls were added to appropriate wells such that the final volume was 100 μl in each well. The cells were cultured for the desired test exposure period (72 hours) at 37° C. and 5% CO2. The assay plates were removed from 3° C. incubator and 20 μl/well of CellTiter-Blue® Reagent was added. The plates were incubated using standard cell culture conditions for 1-4 hours. Afterwards, the plates were shaken for 10 seconds and florescence was recorded at 560/590 nm using a Cytation 3 spectrophotometer. IC50 values were determined using non-linear regression analysis with GraphPad Prism 6.0 (GraphPad Software Inc.).

[2] = tested on: primary human fibroblast cells (PHF); assay: CellTiter-Blue cell viability, PHF; format: cell-based; conditions: non-cancerous, 72 hours
Protocol: as §1

[3] = tested on: LN-229; assay: Cell viability, glioblastoma LN-229; format: cell-based; conditions: Homo sapiens, glioblastoma cell line
Protocol: as §1, with “Cell viability was examined following treatment at various concentrations of inhibitor (0.097656-50 μM) using a CellTiter-Blue® cell viability assay.” left out, “All cells were grown in DMEM, IMDM and RPMI-1640 supplemented with 10% fetal bovine serum (FBS).” left out

[4] = tested on: LN-18; assay: Cell viability, glioblastoma LN-18; format: cell-based; conditions: Homo sapiens, glioblastoma cell line
Protocol: as §1, with “Cell viability was examined following treatment at various concentrations of inhibitor (0.097656-50 μM) using a CellTiter-Blue® cell viability assay.” left out, “All cells were grown in DMEM, IMDM and RPMI-1640 supplemented with 10% fetal bovine serum (FBS).” left out

[5] = tested on: AR230; assay: Cell viability, CML AR230; format: cell-based; conditions: Table 4
Protocol: as §1, with “Inc.). […]” for “Inc.).”

[6] = tested on: AR230R; assay: Cell viability, CML AR230R; format: cell-based; conditions: Table 4
Protocol: as §1, with “Inc.). […]” for “Inc.).”

[7] = in vitro; conditions: male, mouse
Protocol: The reaction mixture was constituted with 100 mM phosphate buffer, ultra-pure H2O, 5 mM MgCl2 solution, 10 mM NADPH solution and 1 mg/mL S9 fraction. This mixture was then pre-warmed at 37° C. for 5 minutes. […] Aliquots of 50 μL were taken from the reaction solution at 0, 15, 30, 45 and 60 minutes. The aliquoted reaction solutions were stopped by the addition of a mixture of cold methanol and IS (100 nM alprazolam, 200 nM imipramine, 200 nM labetalol and 2 μM ketoprofen). The samples were then centrifuged at 3220 g for 40 minutes. Afterwards, aliquots of 90 μL of the supernatant for each sample was mixed with 90 μL of ultra-pure water and subjected to liquid chromatography tandem mass spectrometry (LC-MS/MS) analysis.
Injection volume was 10 μL.

[8] = tested on: BSA, lysozyme, STAT3/5; assay: 19F NMR screen against Cys-containing proteins; format: binding; conditions: 100 μM I-1, 2 hours at 37° C.
Protocol: To assess potential reactivity of I-1 against Cys containing proteins, a series of ^19F NMR studies were conducted with BSA, lysozyme, STAT3, and STATS. […] All samples were prepared in 100 mM HEPES pH 7.4, and 100 μM 5-fluoro-Trp, with a final concentration of 10% D20 and 10% DMSO. The samples were incubated for 2 hours at 37° C. prior to data collection. All spectra were normalized and referenced according to the fluorine peak of 5-fluoro-Trp.

[9] = biological target: T1, UBA5 (Homo sapiens, UniProt Q9GZZ9); assay: MS study of UBA5 covalent adduct; format: binding; conditions: 100 μM I-1, 50 μM UBA5
T1 construct: Constructs of full length human UBA5 (1-404) were cloned into a pET28b(+) vector; His-SUMO (N, cleaved yes); made in house; host or cells: E. coli BL21 (DE3) RILP
Protocol: To further characterize covalent modification of UBA5 by I-1, samples were incubated as 100 μM I-1 and 50 μM UBA5 (50 mM HEPES, pH 7.4) at 30° C. for 2 hours, followed by storage overnight at 4° C. prior to submission for LC-MS analysis.

[10] = biological target: T1, UBA5; assay: In vitro transthiolation assay (UFM1-UFC1 conjugate formation); format: biochemical; conditions: 50 nM UBA5, 3.5 hours pre-incubation, 0 to 1 μM I-1
Protocol: UBA5 and test compounds were pre-incubated for a period of 8 hours at 37° C. prior to addition of other assay components. After this period, UFM1, UFC1 and ATP were introduced to initiate the reactions. Final concentrations in the reactions were 250 nM UBA5, 10 μM UFM1, 10 μM UFC1 and 100 μM ATP for total assay volumes of 20 μL, in buffer consisting of 50 mM 4-(2-hydroxyethyl)-1-piperazineethanesulfonic acid (HEPES),), 0.5 mM TCEP, 5 mM MgCl2, at pH 7.4. A final concentration of 10% (v/v) DMSO was present in all reactions. The reactions were allowed to proceed for 1 hour before stopping with 4× Laemmli buffer (Bio-Rad 1610747). Samples were then run on 4-20% non-reducing SDS-PAGE stain-free gels to separate protein conjugates. Gels were subsequently imaged using Stain-free imaging technology (Bio-Rad). Image Lab software was used to quantify the intensity of the UFM1-UFC1 conjugate bands to controls with no inhibitor present and reported as % inhibition values.
I-1 was evaluated as well using differing transthiolation assay conditions, with a reduction in UBA5 concentration to 50 nM and a pre-incubation period of 3.5 hours at 37° C. of UBA5 with I-1. This was followed by a 30 minute reaction time after UFM1, UFC1 and ATP addition. A final concentration of 5% (v/v) DMSO was used.

[11] = Stability to glutathione, half-life by 19F NMR

T1 sequence (Q9GZZ9 whole entry): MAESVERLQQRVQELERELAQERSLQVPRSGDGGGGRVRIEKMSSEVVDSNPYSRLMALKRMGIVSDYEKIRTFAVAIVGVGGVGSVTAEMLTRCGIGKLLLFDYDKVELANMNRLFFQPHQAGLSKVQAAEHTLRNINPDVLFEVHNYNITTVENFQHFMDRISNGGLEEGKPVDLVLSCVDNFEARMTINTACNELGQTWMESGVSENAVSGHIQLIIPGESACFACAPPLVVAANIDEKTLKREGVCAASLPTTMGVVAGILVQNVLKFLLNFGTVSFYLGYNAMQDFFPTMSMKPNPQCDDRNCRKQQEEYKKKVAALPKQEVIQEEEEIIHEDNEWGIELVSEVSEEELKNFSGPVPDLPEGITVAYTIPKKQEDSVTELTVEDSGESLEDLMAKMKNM

Question: With O=S(=O)(c1c(F)c(F)c(F)c(F)c1F)N(Cc1ccc(F)cc1)C1CC1 [Compound I-1, N-cyclopropyl-2,3,4,5,6-pentafluoro-N-(4-fluorobenzyl)benzenesulfonamide] as the molecule, how does the IC50 [1] read?
Answer: The IC50 was 25 µM.

Question: What about the IC50 [2] of the same molecule?
Answer: The IC50 was 3.4 µM.

Question: And the IC50 [3]?
Answer: The IC50 was 3.03 µM.

Question: What about the IC50 [4] of the same molecule?
Answer: The IC50 was 4.92 µM.

Question: What about the IC50 [5] of the same molecule?
Answer: The IC50 was 4.1 µM.

Question: What about the IC50 [6] of the same molecule?
Answer: Its IC50 is 1.5 µM.

Question: And the half-life at 2 μM ([7]; s9)?
Answer: The half-life at 2 μM was 232 h.

Question: What about the microsomal CLint at 2 μM ([7]; s9) of the same molecule?
Answer: Its microsomal CLint at 2 μM is 0.05 µL/min/mg.

Question: And the “Remaining Percentage 0 min” value ([7]; s9, 0 h, 2 μM)?
Answer: Its value is 100.00%.

Question: What about the “reactivity towards Cys-containing proteins (free fluoride release)” value [8] of the same molecule?
Answer: Its value is “no significant fluoride release; also recorded: unreactive”.

Question: What about the “UBA5 covalent adduct formation by MS” value [9] of the same molecule?
Answer: The value was “covalent adduct formation”.

Question: And the UFM1-UFC1 conjugate formation [10]?
Answer: The UFM1-UFC1 conjugate formation was “no conjugate formation at sub-micromolar concentrations”.

Question: What about the “increase in T1/2 as compared to Batabulin” value [11] of the same molecule?
Answer: The value was “greater than 7 fold”.
